# Data taken from US20210290593A1, “USE OF SUSTAINED-RELEASE 5-HYDROXYTRYPTOPHAN IN TREATING GASTROINTESTINAL DISORDERS” (Duke University, priority 2018, published 2021).
# Entries after “also recorded” stand apart in the source; their conditions may differ. Where two headings read alike, the source gives them in different places.
# How the values were obtained:
# [1] = Human 5-HTP gastrointestinal regional absorption study (plasma 5-HTP); assay type: in vivo; details: for bioavailability: read-out: Absolute bioavailability F; for Cmax: read-out: Maximal average 5-HTP plasma (CMax) levels
# Procedure: Determination of absolute and regional intestinal bioavailability of 5-HTP in humans.
# The free base form of 5-HTP was used (5-HTP has a water solubility of >10 mg/mL).
# Colonic: 5-HTP free base saline solution 200 mg.
# Intravenous: 5-HTP free base saline solution 50 mg.
# Oral/Upper GI: Two 5-HTP gelatin tablets of 100 mg 5-HTP free base (200 mg total dose).
# Healthy male and female volunteers aged 18 to 65 years with a body mass index (BMI) of 19 to 28 were eligible for the study. Subjects were admitted to the investigational medical unit (IMU) 2 h before 5-HTP administration and remained at the IMU for 24 h following, for blood sampling and safety assessment.
# All subjects (n=12) received 5-HTP mg on 3 occasions. (1) Intra-colonic 200 mg 5-HTP solution by colonoscopy. (2) Intravenous 50 mg (IV). (3) Upper GI (oral) 5-HTP 200 mg. At least 6 days passed between each visit.
# Plasma samples were collected over 24-hours after 5-HTP administration. Plasma samples were stored at −80° C. until analysis. 5-HTP and the metabolite 5-hydroxyindole-acetic-acid (5-HIAA) were quantified by liquid chromatography with mass-spectrometry detection.
# The PK data were analyzed using noncompartmental (NCA) and compartmental (mixed effects) mathematical modelling approaches, to calculate area 5-HTP plasma under the curve (AUC) for each subject for each 5-HTP administration.
# From FIG. 10, the area under the curve (AUC) for each route of administration was obtained, which was then used to calculate the absolute bioavailability (F) of the oral and colon routes of administration. For example, the formula for calculating F for a drug administered by the oral route (po) is given below (D is dose): […]
# [2] = one rodent study; cited from earlier work
# [3] = test system: isolated colon of WT and R439H mice; assay: Colonic migrating motor complexes (CMMC) measured in vitro; parameters: species or system mouse
# Procedure: The entire colon (5-6 cm) was removed and mounted to allow spontaneous motor patterns to be video-imaged for the construction of spatiotemporal maps (Roberts et al, 2008; Roberts et al, 2007). The isolated colon was incubated in Krebs' solution until endogenous fecal pellets were expelled. The empty colon was cannulated at both ends, mounted in a horizontal organ bath, and both luminal and serosal compartments were superfused with oxygenated Krebs' solution at 35° C. The height of a reservoir connected to the oral cannula was adjusted to maintain intraluminal pressure at +2 cm HO. The anal cannula provided a maximum of 2 cm of back-pressure. The contractile activity was imaged with a Logitech Quickcam pro camera positioned 7-8 cm above the gut. Preparations were equilibrated for 30 min and four 15 min videos were captured. Spatiotemporal maps of the diameter at each point along the proximo-distal length of colon were constructed and used to quantify the frequency of CMMCs as well as the velocity and length of their propagation (Margolis et al, 2016b; Welch et al, 2014). CMMCs were defined as constrictions of the diameter of the bowel that propagated for at least 50% of the length of the preparations. For studies utilizing IR 5-HTP, a dose response curve was conducted whereby the isolated colons were exposed to concentrations of 5-HTP ranging from 1 to 10 μM, both intraluminally and extraluminally.
# mice = assay: Morphine-induced constipation (colonic motility); assay type: in vivo, mouse
# Excerpt: FIG. 8. Morphine-induced constipation and reversal by 5-HTP in mice.
# Water solubility = assay type: physicochemical; details: free base
# WT and R439H mice [4] = assay: Colonic propulsion (glass bead expulsion time); assay type: in vivo, mouse
# Procedure: Mice were anesthetized with isoflurane (Baxter Pharmaceutical Products) and a glass bead (3 mm in diameter) was pushed with a fire-polished glass rod through the anus into the colon to a distance of 2 cm from the anal verge (Li et al, 2006). The time required for the mice to expel the bead was determined and used to estimate in vivo colorectal propulsion.
# WT and R439H mice [5] = assay: Total gastrointestinal transit time (oral carmine red); assay type: in vivo, mouse; details: 30 mg/kg intraperitoneal
# Procedure: Carmine red (300 μl; 6%; Sigma-Aldrich) suspended in 0.5% methylcellulose, which cannot be absorbed, was administered by gavage to study total GI transit time. Total GI transit time was considered as the interval between gavage and the appearance of carmine red in stool (Kimball et al, 2005).
# [6] = after administration of exogenous 5-HTP; cited from earlier work
# animals = assay: Colonic motility, prucalopride vs 5-HTP; assay type: in vivo; details: in animals
# Excerpt: FIG. 9. Colonic motility. Effect of prucalopride vs 5-HTP.
# R439H mice = details: cited from earlier work
structure (smiles),measurement,setting,value
"N[C@@H](Cc1c[nH]c2ccc(O)cc12)C(=O)O [5-HTP, 5-hydroxytryptophan]",Absorption in upper intestine compared to colon,[1],5 times
same,AUC,"[1]; both sexes, plasma, intravenous dosing 50 mg",2040 ng·h/mL
same,bioavailability,"[1]; both sexes, plasma, oral 200 mg (upper GI tract)",20%
same,AUC,"[1]; both sexes, plasma, oral dosing 200 mg",1500 ng·h/mL
same,Cmax,"[1]; both sexes, plasma, other: intra-colonic by colonoscopy, 200 mg, intra-colonic 200 mg",40 to 50 ng/mL
same,AUC,"[1]; both sexes, plasma, other: intra-colonic by colonoscopy, colonic dosing 200 mg",312 ng·h/mL
same,bioavailability,"[1]; both sexes, plasma, other: intra-colonic by colonoscopy, intra-colonic 200 mg",4%
same,Relative upper GI:colon bioavailability,"[1]; both sexes, plasma, other: upper GI (oral) and intra-colonic compared, 200 mg, read-out: Relative upper GI tract:colon bioavailability (RBA)",20%
same,Cmax,"[1]; both sexes, plasma, po, 200 mg, oral 200 mg",370 ng/mL
same,Maximal average 5-HTP plasma (CMax) levels,[1]; intra-colonic 200 mg,47 ng/mL
same,Absorption by the colon vs the upper intestine,[2],absorbed equally well by the colon and the upper intestine
same,CMMC frequency,"[3]; R439H colon, extraluminal 1 μM",0.78±0.18 CMMC/min
same,CMMC velocity,"[3]; R439H colon, extraluminal 1 μM",3.2±0.2 mm/s
same,CMMC frequency,"[3]; R439H colon, intraluminal 1 μM",1.02±0.10 CMMC/min
same,CMMC velocity,"[3]; R439H colon, intraluminal 1 μM",2.7±0.2 mm/s
same,CMMC frequency,"[3]; WT colon, extraluminal 1 μM",0.60±0.20 CMMC/min
same,CMMC velocity,"[3]; WT colon, extraluminal 1 μM",1.4±0.5 mm/s
same,CMMC frequency,"[3]; WT colon, intraluminal 1 μM",0.90±0.06 CMMC/min
same,CMMC velocity,"[3]; WT colon, intraluminal 1 μM",2.3±0.2 mm/s
same,"Colonic motility, 5-HTP by itself",mice; 5-HTP 30 mg/kg,enhanced colonic motility
same,Effect on morphine-induced constipation (colonic motility),mice; 5-HTP 30 mg/kg with morphine 10 mg/kg,reversed the morphine-induced constipation
same,solubility,Water solubility,> 10000 µg/mL
same,Time of colonic bead expulsion,WT and R439H mice [4]; 30 mg/kg intraperitoneal,7.2 ± 1.6 min
same,Time of colonic bead expulsion,WT and R439H mice [4]; 100 mg/kg intraperitoneal,5.2 ± 1.6 min
same,Total in vivo GI transit time,WT and R439H mice [5],74.9 ± 19.5 min
same,5-HTP plasma levels needed to produce systemic pharmacological effects,[6],over 100 ng/ml
same,Efficacy (maximal effect) on colonic motility compared to prucalopride,animals,higher efficacy
same,Potency on colonic motility compared to prucalopride,animals,higher potency; also recorded: more potent than prucalopride at lower doses
CNCCC(Oc1ccc(C(F)(F)F)cc1)c1ccccc1 (stereo not shown) [fluoxetine],CNS 5-HT levels,R439H mice,further decline in CNS 5-HT levels
same,Depressive behaviors,R439H mice,worsened their depressive behaviors
"CN1CC[C@]23c4c5ccc(O)c4O[C@H]2[C@@H](O)C=C[C@H]3[C@H]1C5 [Morphine, reference compound]",Colonic motility,mice; morphine 10 mg/kg,"induced constipation, as determined by slowed colonic motility"
